Data reported in patent US20260309717A1, “PROXIMITY INDUCING SYSTEM AND USES THEREOF” (SORBONNE UNIVERSITE, priority 2022, published 2026).

Columns and labels:
[1] = biological target: T1, mCherry-^FIREtag / ^FIREmate-ECFP-Giantin (Halorhodospira halophila, UniProt P16113, A30V/C69G/D97P/F96I, form not given/G21E/G25R/K17N/M100R/M109L/Q41L/Q99S/S72T/T101G/V83A/Y94W/Y98T); experiment: Recruitment of cytoplasmic protein to the Golgi apparatus, HeLa cells; type: cell-based; conditions: 10 μM
T1 construct: FIREmate-ECFP-Giantin(3131-3259) and mCherry-FIREtag in HeLa cells
T1 sequence (P16113 1-114 A30V/C69G/D97P/F96I/G21E/G25R/K17N/M100R/M109L/Q41L/Q99S/S72T/T101G/V83A/Y94W/Y98T): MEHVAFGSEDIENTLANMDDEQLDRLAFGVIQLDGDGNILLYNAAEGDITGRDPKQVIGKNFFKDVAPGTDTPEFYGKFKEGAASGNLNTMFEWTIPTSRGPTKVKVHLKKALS
Protocol: FIGS. 6A-E illustrate the recruitment of cytoplasmic proteins to the Golgi apparatus with the proximity inducing system described herein. FIG. 6A is a representation of the experimental design wherein HeLa cells co-expressing mCherry-^FIREtag and ^FIREmate-ECFP-Giantin were treated with 10 µM of match (either HBR-2,5DM or HMBR), and imaged by time-lapse confocal microscopy. FIGS. 6B-C are graphs showing the temporal evolution of the FIRE signal detected upon addition at 0 min of HBR-2,5DM (match1-6B) or HMBR (match2-6C). Data represents the mean values±SD of 10 cells from n=3 independent experiments (6B, D), or of 12 cells from n=3 independent experiments (6C, E). FIGS. 6D-E are sets of representative confocal micrographs of cells before (0 min) and after (5 min) addition of HBR-2,5DM (match1-6D) or HMBR (match2-6E) (mCherry: ex/em 561/606-675 nm; FIRE: ex/em 488/508-570 nm; ECFP: ex/em 445/455-499 nm). […] Scale bars are 20 μm.
(§1) The confocal micrographs were acquired on a Zeiss LSM 980 Laser Scanning Microscope equipped with a plan apochromat 63x/1.4 NA oil immersion objective. ZEN software was used to collect the data. The images were analyzed using Icy (2.4.0.0) and Fiji (Image J). In short, to track fluorescence signal in a specific organelle, a ROI (region of interest) was determined by masking the signal in the ECFP (Enhanced Cyan Fluorescent Protein) channel with the plug-in HK-means with the following parameters: intensity class equals 100, minimum object size (pixels or px) equals 500, maximum object size (px) equals 1500-3000. The signal intensity of the ROI was tracked over time for each channel by using plug-in Active Contours. The background signal was subtracted. Data were processed using GraphPad Prism v9.3.0.
(§2) To further evaluate the scope of the proximity inducing system described herein and show its versatility, ^FIREmate was anchored at the membrane of various organelles or cellular structures so that ^FIREmate faced the cytosol. ^FIREmate was thus fused: • to the N-terminus of the transmembrane domain (amino acid residues at positions 3131-3259) of Giantin for location at the cis-medial rims of the Golgi apparatus (FIG. 6A), • to the N-terminus of the transmembrane domain (amino acid residues at positions 100-134) of the cytochrome b5 (Cb5) for location at the endoplasmic reticulum membrane (FIG. 7A), and • to the C-terminus of the Lyn11 inner membrane targeting sequence for location at the plasma membrane (FIG. 8A).
(§3) For each construct, an ECFP was inserted between ^FIREmate and the other protein domain/sequence to monitor the localization of the resulting fusion protein (blue fluorescence). Each fusion protein was co-expressed in mammalian cells (HeLa cells or HEK293 cells as indicated) together with mCherry-^FIREtag (red fluorescence). […]

[2] = biological target: T2, mCherry-^FIREtag / Lyn11-ECFP-^FIREmate (Halorhodospira halophila, UniProt P16113, A30V/C69G/D97P/F96I, form not given/G21E/G25R/K17N/M100R/M109L/Q41L/Q99S/S72T/T101G/V83A/Y94W/Y98T); experiment: Recruitment of cytoplasmic protein to the plasma membrane, HEK293 cells; type: cell-based; conditions: 10 μM
T2 construct: Lyn11-ECFP-FIREmate and mCherry-FIREtag in HEK293 cells
T2 sequence (P16113 1-114 A30V/C69G/D97P/F96I/G21E/G25R/K17N/M100R/M109L/Q41L/Q99S/S72T/T101G/V83A/Y94W/Y98T): T1 sequence (P16113 1-114 A30V/C69G/D97P/F96I/G21E/G25R/K17N/M100R/M109L/Q41L/Q99S/S72T/T101G/V83A/Y94W/Y98T)
Protocol: FIGS. 8A-E illustrate the recruitment of cytoplasmic proteins to the plasma membrane with the proximity inducing system described herein. FIG. 8A is a representation of the experimental design wherein HEK293 cells co-expressing mCherry-^FIREtag and Lyn11-ECFP-^FIREmate were treated with 10 μM of match (either HBR-2,5DM or HMBR), and imaged by time-lapse confocal microscopy. FIGS. 8B-C are graphs showing the temporal evolution of the FIRE signal detected upon addition at 0 min of HBR-2,5DM (match1-8B) or HMBR (match2-8C). Data represents the mean values±SD of 22 cells from n=3 independent experiments (8B, D), or of 30 cells from n=3 independent experiments (8C, E). FIGS. 8D-E are sets of representative confocal micrographs of cells before (0 min) and after (5 min) addition of HBR-2,5DM (match1-8D) or HMBR (match2-8E) (mCherry: ex/em 561/606-675 nm; FIRE: ex/em 488/508-570 nm; ECFP: ex/em 445/455-499 nm). […] Scale bars are 20 μm.
as §1, §2, §3

With `Cc1cc(/C=C2\SC(=S)NC2=O)c(C)cc1O` [HBR-2,5DM, (Z)-5-(4-hydroxy-2,5-dimethylbenzylidene)-2-thioxo-1,3-thiazolidin-4-one] the “FIRE signal at the Golgi apparatus” value [1] was “simultaneous appearance of green fluorescence”, the “translocation of mCherry-^FIREtag to the Golgi apparatus” value [1] was “rapid translocation of mCherry-^FIREtag to the organelle” and the “FIRE signal at the plasma membrane” value [2] was “simultaneous appearance of green fluorescence”. The “translocation of mCherry-^FIREtag to the plasma membrane” value [2] was “rapid translocation of mCherry-^FIREtag to the organelle”.
